Usually melting point stands for the temperature, or range, at which the solid turns liquid.

For `COc1ccc2oc(-c3csc(N)n3)c(-c3ccc(Cl)cc3)c2c1` [Example 218, 4-[3-(4-chlorophenyl)-5-methoxybenzofuran-2-yl]thiazol-2-ylamine], the melting point lay within 196 to 197.7 °C.

`CC(=O)c1oc2ccc(Br)cc2c1NC(=O)c1cnoc1C` [Example 65, N-(2-acetyl-5-bromobenzofuran-3-yl)-5-methylisoxazole-4-carboxamide] came in with a melting point of 206 to 208 °C.

In turn, `CCN(CC)C(=O)/C=C(\C)c1ccc2oc(C(=O)c3ccc(C#N)cc3)c(N)c2c1` [Example 22, (E)-3-[3-amino-2-(4-cyanobenzoyl)benzofuran-5-yl]-N,N-diethyl-2-butenamide] had a melting point of 216.4 to 218.4 °C.

Consider `C/C(O)=C(\C#N)C(=O)Nc1c(C(=O)c2ccc(C#N)cc2)oc2ccc(Br)cc12` [Example 100, (Z)-N-[5-bromo-2-(4-cyanobenzoyl)benzofuran-3-yl]-2-cyano-3-hydroxy-2-butenamide], for which the melting point lay in the range of 269.3 to 271.2 °C.

Compound `C/C=C/C(=O)Nc1c(C(C)=O)oc2c(OC)cccc12` [Example 185, (E)-2-butenoic acid (2-acetyl-7-methoxybenzofuran-3-yl)amide] registered a melting point of 165.7 to 168 °C.

Regarding `CCOC(=O)CCCOc1cccc2cc(/C(Cl)=C/C=O)oc12` [Example 140, Ethyl 4-[2-(1-chloro-3-oxopropenyl)benzofuran-7-yloxy]-butyrate], the melting point was 67 to 69.5 °C.

In turn, `COc1cccc2c(NC(=O)/C=C/c3ccccc3)c(C(=O)c3ccc(Br)cc3)oc12` [Example 179, (E)-N-[2-(4-bromobenzoyl)-7-methoxybenzofuran-3-yl]-3-phenylacrylamide] returned a melting point of 236.5 to 237.8 °C.

`CCN(CC)C(=O)/C=C(\C)c1ccc2oc(C(=O)c3ccc(C#N)cc3)c(NC(=O)/C(C#N)=C(/C)O)c2c1` [Example 109, N-[2-(4-cyanobenzoyl)-5-((E)-2-diethylcarbamoyl-1-methylvinyl)benzofuran-3-yl]-2-cyano-3-hydroxy-(Z)-2-butenamide] came in with a melting point of 219.5 to 222.8 °C.

As to `C/C(O)=C(\C#N)C(=O)Nc1c(C(N)=O)oc2ccccc12` [Example 101, (Z)-3-(2-cyano-3-hydroxy-2-butenoylamino)benzofurane-2-carboxamide], the melting point is 265 °C.

Compound `Cc1oncc1C(=O)Nc1c(C#N)oc2ccc(Br)cc12` [Example 85, N-(5-bromo-2-cyanobenzofuran-3-yl)-5-methylisoxazole-4-carboxamide] had a melting point of 239.2 to 241.9 °C.

Regarding `COc1cccc(NC(=O)c2oc3ccc(Br)cc3c2NC(=O)/C(C#N)=C(/C)O)c1` [Example 188, (Z)-5-bromo-3-(2-cyano-3-hydroxy-2-butenoylamino)benzofurane-2-carboxylic acid (3-methoxyphenyl)amide], the melting point was 234.5 to 241.5 °C.

With `COc1cccc2c(NC(=O)c3cnoc3C)c(C(C)=O)oc12` [Example 80, N-(2-acetyl-7-methoxybenzofuran-3-yl)-5-methylisoxazole-4-carboxamide], the melting point was 181 to 181.7 °C.

Compound `C/C=C/C(=O)Nc1c(C(C)=O)oc2cc(OC)ccc12` [Example 116, (E)-N-(2-acetyl-6-methoxybenzofuran-3-yl)-2-butenamide] gave a melting point of 153.8 to 155.7 °C.

The compound `CCN(CC)C(=O)/C=C(\C)c1ccc2oc(C(=O)Nc3cccc(OC)c3)c(N)c2c1` [Example 158, (E)-3-amino-5-(2-diethylcarbamoyl-1-methylvinyl)benzofurane-2-carboxylic acid (3-methoxyphenyl)amide] showed a melting point of 155 to 157 °C.

The compound `C/C(=C\C(=O)N1CCOCC1)c1ccc2oc(/C(C)=C/C(=O)O)cc2c1` [Example 136, (E,E)-3-[5-(1-methyl-3-morpholin-4-yl-3-oxopropenyl)benzofuran-2-yl]-2-butenoic acid] registered a melting point of 202.6 to 204.4 °C.

Source of the values: patent US7638540B2, “Benzofuran compound and medicinal composition containing the same” (The New Industry Research Organization, priority 2003, dated 2009).
